Test results published in the NIST ThermoML archive (doi:10.1016/j.jct.2011.09.001).

Columns and labels:
[1] = xn = mol fraction of the nth substance listed; conditions: 101 kPa, Liquid; for mass density: Vibrating tube method; for speed of sound: Sing-around technique in a fixed-path interferometer
[2] = refractive index (Na D-line) (dimensionless); xn = mol fraction of the nth substance listed; conditions: 101 kPa, Liquid, Standard Abbe refractometry

c1ccc2c(c1)CCCC2 [1,2,3,4-tetrahydronaphthalene] + CCCCCCCCCC
Conditions | mass density, 333.15 K [kg/m3] | mass density, 343.15 K [kg/m3] | refractive index, 293.15 K | refractive index, 303.15 K | refractive index, 313.15 K | refractive index, 323.15 K | refractive index, 333.15 K | refractive index, 343.15 K | speed of sound, 343.15 K [m/s]
[1], x1 = 0.1008 | 717.2 | 709.3 | – | – | – | – | – | – | 1078.4
[1], x1 = 0.2034 | 736 | 728.2 | – | – | – | – | – | – | 1095.2
[1], x1 = 0.3 | 755.4 | 747.6 | – | – | – | – | – | – | 1113.2
[1], x1 = 0.401 | 776.5 | 768.7 | – | – | – | – | – | – | 1131.6
[1], x1 = 0.494 | 797.3 | 789.5 | – | – | – | – | – | – | 1152.9
[1], x1 = 0.5949 | 821.6 | 813.7 | – | – | – | – | – | – | 1176.1
[1], x1 = 0.7009 | 849 | 841.1 | – | – | – | – | – | – | 1204.1
[1], x1 = 0.7974 | 875.7 | 867.7 | – | – | – | – | – | – | 1231.5
[1], x1 = 0.8997 | 906.3 | 898.4 | – | – | – | – | – | – | 1264.7
[1], x1 = 1 | 937.8 | 929.8 | – | – | – | – | – | – | 1299.8
[2], x1 = 0.1008 | – | – | 1.4216 | 1.4171 | 1.4126 | 1.4081 | 1.4035 | 1.3988 | –
[2], x1 = 0.2034 | – | – | 1.4319 | 1.4274 | 1.4229 | 1.4183 | 1.4137 | 1.4092 | –
[2], x1 = 0.3 | – | – | 1.4422 | 1.4376 | 1.4331 | 1.4285 | 1.4238 | 1.4192 | –
[2], x1 = 0.401 | – | – | 1.4535 | 1.449 | 1.4445 | 1.4399 | 1.4355 | 1.4308 | –
[2], x1 = 0.494 | – | – | 1.4648 | 1.4602 | 1.4556 | 1.4511 | 1.4463 | 1.4418 | –
[2], x1 = 0.5949 | – | – | 1.4778 | 1.4733 | 1.4688 | 1.4642 | 1.4597 | 1.4549 | –
[2], x1 = 0.7009 | – | – | 1.4925 | 1.488 | 1.4835 | 1.479 | 1.4744 | 1.4697 | –
[2], x1 = 0.7974 | – | – | 1.5071 | 1.5026 | 1.498 | 1.4933 | 1.4887 | 1.4841 | –
[2], x1 = 0.8997 | – | – | 1.5239 | 1.5193 | 1.5148 | 1.5102 | 1.5055 | 1.5008 | –
[2], x1 = 1 | – | – | 1.5414 | 1.5367 | 1.5321 | 1.5274 | 1.5228 | 1.518 | –
